Measurements as given in US20240299499A1, “Therapeutic Peptide Formulations” (Eli Lilly and Company, priority 2020, published 2024).
≈ marks a conversion by molar mass, not a printed value. Like-named read-outs stand apart in the source and are kept apart here.

Experiments:
Format in all cases: physicochemical
[1] = Solution formulation feasibility study: covalent aggregates by SEC; details: pH values of 7.0-8.5
Procedure: Solutions were filtered through […] PVDF filters. In a laminar flow hood, the solutions were filled into glass vials. Vials were capped, and stored at 5° C., 25° C. and 30° C. Samples were withdrawn and submitted for testing as follows: (a) initial testing; (b) two weeks; and (c) one month. The formation of covalent aggregates was measured by size-exclusion chromatography (SEC).

[2] = Effect of antioxidants: chemical stability by RP-HPLC (total impurities, Trp oxidation); details: refrigerated condition
Procedure: Solutions were filtered through […] PVDF filters. In a laminar flow hood, the solutions were filled into glass vials. Vials were capped, and stored at 5° C., 25° C. and 30° C. Four formulations comprising Compound 1 were prepared to evaluate the stabilization efficacy of antioxidants, namely, EDTA, citrate and methionine. […] Subsequently, a fifth sample containing higher concentration of methionine (100 mM vs. 10 mM) was prepared to evaluate the effect of methionine concentration (Table 15, Lot No. 26). Samples were prepared, and stored at 5° C., 25° C. and 30° C. for up to 3 months. At appropriate times, stability-indicating assays were performed to assess the physical and chemical stability.
At 25° C. and 30° C., there are significant differences in stabilization efficacy.

[3] = Solubility of Compound 1 at 25° C. between pH 5.0 and pH 7.0 (UV-Vis at 280 nm)
Procedure: All solutions comprised 10 mM tris (1.21 g/L) and 0.05% EDTA (0.5 g/L). The solution pH was titrated using either 1N hydrochloric acid or concentrated tris base stock solution.
The concentration of Compound 1 was measured at 280 nm by a UV-Vis spectrophotometer (SoloVPE). UV-Vis spectrophotometer is commonly used for quantification of proteins or peptides in solution. A characteristic UV absorption spectrum around 280 nm is predominately from the aromatic amino acids such as tryptophan (Trp, W) and tyrosine (Tyr, Y). When the molar extinction coefficient of the protein or peptide is known, the Beer-Lambert law is used to accurately quantitate amount of protein or peptide by UV absorbance, assuming the molecule contains no UV-absorbing non-proteinaceous components such as bound nucleotide cofactors, heme, or iron-sulfur centers. Compound 1 has tyrosine amino acid residues at positions 10 and 13 and has a tryptophan amino acid residue at position 25 and has an extinction coefficient of 1.86 mL·mg^−1·cm^−1 (as calculated by the Pace Method). Measuring the peptide concentration at different pH conditions by this method is appropriate for Compound 1.

CC(C)C[C@H](NC(=O)[C@H](CC(C)C)NC(=O)[C@H](Cc1c[nH]c2ccccc12)NC(=O)[C@H](CCC(=O)O)NC(=O)[C@@H](NC(=O)[C@H](Cc1ccccc1)NC(=O)[C@H](CCC(=O)O)NC(=O)[C@H](CCCCNC(=O)COCCOCCNC(=O)COCCOCCNC(=O)CC[C@H](NC(=O)CCCCCCCCCCCCCCCCCCC(=O)O)C(=O)O)NC(=O)[C@H](C)NC(=O)[C@H](CCCCN)NC(=O)[C@H](CCCCN)NC(=O)[C@H](CCC(=O)O)NC(=O)[C@H](CC(=O)O)NC(=O)[C@H](CC(C)C)NC(=O)[C@H](Cc1ccc(O)cc1)NC(=O)[C@H](CCCCN)NC(=O)[C@H](CO)NC(=O)[C@H](Cc1ccc(O)cc1)NC(=O)[C@H](CC(=O)O)NC(=O)[C@H](CO)NC(=O)[C@@H](NC(=O)[C@H](Cc1ccccc1)NC(=O)[C@@H](NC(=O)CNC(=O)[C@H](CCC(N)=O)NC(=O)C(C)(C)NC(=O)[C@@H](N)Cc1c[nH]cn1)[C@@H](C)O)[C@@H](C)O)C(C)C)C(=O)N[C@@H](CCC(=O)O)C(=O)NCC(=O)NCC(=O)N1CCC[C@H]1C(=O)N[C@@H](CO)C(=O)N[C@@H](CO)C(=O)NCC(N)=O [Compound 1]
stability in certain formulations [1]: sub-optimal stability | chemical degradation by RP-HPLC [2]: not substantial | solubility ([3]; 10 mM tris buffer with 0.05% EDTA, aqueous buffer, Solution pH 6.16, 10 mM tris and 0.05% EDTA, 25° C., read-out: Compound 1 concentration in solution): 14.5 mg/mL (≈ 3.19 mM) | solubility ([3]; 10 mM tris buffer with 0.05% EDTA, aqueous buffer, Solution pH 6.84, 10 mM tris and 0.05% EDTA, 25° C., read-out: Compound 1 concentration in solution): 44.6 mg/mL (≈ 9.76 mM) | Compound 1 concentration in solution ([3]; Solution pH 5.31, 10 mM tris and 0.05% EDTA, 25° C.): 0.00 mg/mL | solubility ([3]; lower pH values (e.g. pH 5.0 to 6.5)): sub-optimal solubility | solubility (change with pH) ([3]; pH increased from 5.3 to 6.8): increased significantly | solubility by extrapolation of the data ([3]; pH values of 7.0 and above): higher
